Data taken from patent US10696639B2, “Heterocyclic compounds as HIV protease inhibitors” (Merck Sharp & Dohme Corp., priority 2016, dated 2020).

Target: T1, wild-type HIV-1 protease (Human immunodeficiency virus type 1 group M subtype B, UniProt P04585)
T1 construct: Escherichia coli expressed wild-type HIV-1 protease protein; made in house; host or cells: Escherichia coli
Assay: Assay for Inhibition of Microbial Expressed HIV Protease
Format: biochemical
Settings: E. coli expressed wild-type HIV-1 protease, peptide substrate cleavage, LC-MS readout; mean of at least two independent experiments; read-out: HIV Pr Enzyme HIV1 PR IC50
Method: Assay for Inhibition of Microbial Expressed HIV Protease
Inhibition of Escherichia coli expressed wild-type HIV-1 protease protein was carried out with a peptide substrate [Val-Ser-Gln-Asn-(βnaphtyl)Ala-Pro-Ile-Val]. The inhibitor compound was preincubated with HIV-1 protease enzyme in assay buffer (50 mM sodium acetate, pH 5.5, 100 mM NaCl, and 0.1% BSA) for 30 minutes at room temperature. Peptide substrate was added to […] in a total volume of 20 μL containing 20 pM HIV-1 protease (final) after which the reaction was incubated for 1 hour at 30° C. The reaction was quenched by the addition of formic acid and HIV protease inhibitor indinavir to 0.012% and 150 nM final concentrations, respectively. Product formation was determined after separation of product and substrate on a ZORBAX Eclipse XDB-C18 column (Aligent Technologies, Santa Clara, Calif., USA) connected to an API 4000™ mass spectrometer (AB Sciex, Pte. Ltd., Concord Ontario, Canada) with multiple reaction monitoring (transitions were 644.5/428.9 and 615.4/422.2 (M1/M3) for product and indinavir respectively). The extent of inhibition of the reaction was determined from the peak area of the products. Analysis of the products, independently synthesized, provided quantitation standards and confirmation of the product composition.

SMILES	IC50 [nM]
COC(=O)N[C@@H](Cc1ccccc1)C(=O)NCCC[C@@H](CC1CC1)N1C(=N)N[C@](CC(C)C)(c2ccccc2)C1=O [Example 53, N-{(4S)-5-cyclopropyl-4-[(4R)-2-imino-4-(2-methylpropyl)-5-oxo-4-phenylimidazolidin-1-yl]pentyl}-N-alpha-(methoxycarbonyl)-L-phenylalaninamide]	249
COC(=O)N[C@@H](Cc1ccccc1)C(=O)NCCC[C@@H](C)N1C(=N)N[C@](CC(C)C)(c2ccccc2)C1=O [Example 54, N-{(4R)-4-[(4R)-2-imino-4-(2-methylpropyl)-5-oxo-4-phenylimidazolidin-1-yl]pentyl}-N-alpha-(methoxycarbonyl)-L-phenylalaninamide]	190
CC[C@H](CCCNC(=O)[C@H](Cc1ccccc1)NC(=O)OC)N1C(=N)N[C@](CC(C)C)(c2ccccc2)C1=O [Example 55, N-{(4R)-4-[(4R)-2-imino-4-(2-methylpropyl)-5-oxo-4-phenylimidazolidin-1-yl]hexyl}-N-alpha-(methoxycarbonyl)-L-phenylalaninamide]	532
COC(=O)N[C@@H](Cc1ccccc1)C(=O)NCCC[C@@H](CCC1CC1)N1C(=N)N[C@](CC(C)C)(c2ccccc2)C1=O [Example 56, N-{(4R)-6-cyclopropyl-4-[(4R)-2-imino-4-(2-methylpropyl)-5-oxo-4-phenylimidazolidin-1-yl]hexyl}-N-alpha-(methoxycarbonyl)-L-phenylalaninamide]	100
